Patent US20060069132A1, “Azolecarboxamide herbicides” (priority 2004, published 2006)

Tests used:
Test in all cases: Test C pre-/postemergence herbicide test
common ragweed = assay type: in vivo, Ambrosia elatior; design: key to Plant response rating, Ragweed: 0 = no effect, 100 = complete control; conditions: for Ragweed plant response rating: Preemergence, scale 0 to 100, 0 no effect, 100 complete control
Outline: (§1)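 Seeds were planted and sprayed preemergence with test chemicals in a non-phytotoxic solvent mixture containing surfactant; postemergence treatments went onto plants 2 to 18 cm tall (1- to 4-leaf stage). After 12 to 14 days in a greenhouse, injury was rated visually against untreated controls on a 0–100 scale.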

Surinam grass = assay type: in vivo, Urochloa decumbens; conditions: for Surinam Grass plant response rating: Preemergence, scale 0 to 100, 0 no effect, 100 complete control
Outline: as §1

corn = assay type: in vivo, Zea mays; conditions: for Corn plant response rating: Preemergence, scale 0 to 100, 0 no effect, 100 complete control
Outline: as §1

yellow nutsedge = assay type: in vivo, Cyperus esculentus; conditions: for Nutsedge, Yellow plant response rating: Preemergence, scale 0 to 100, 0 no effect, 100 complete control
Outline: as §1

eastern black nightshade = assay type: in vivo, Solanum ptycanthum; conditions: for Nightshade plant response rating: Preemergence, scale 0 to 100, 0 no effect, 100 complete control
Outline: as §1

soybean = assay type: in vivo, Glycine max; conditions: for Soybean plant response rating: Preemergence, scale 0 to 100, 0 no effect, 100 complete control
Outline: as §1

johnsongrass = assay type: in vivo, Sorghum halepense; conditions: for Johnsongrass plant response rating: Preemergence, scale 0 to 100, 0 no effect, 100 complete control
Outline: as §1

giant foxtail = assay type: in vivo, Setaria faberi; conditions: for Foxtail, Giant plant response rating: Preemergence, scale 0 to 100, 0 no effect, 100 complete control
Outline: as §1

lambsquarters = assay type: in vivo, Chenopodium album; conditions: for Lambsquarters plant response rating: Preemergence, scale 0 to 100, 0 no effect, 100 complete control
Outline: as §1

morningglory = assay type: in vivo, Ipomoea coccinea; design: key to Plant response rating, Morningglory: 0 = no effect, 100 = complete control; conditions: for Morningglory plant response rating: Preemergence, scale 0 to 100, 0 no effect, 100 complete control
Outline: as §1

[1] = 62 g ai/ha, preemergence, scale 0 to 100
[2] = 125 g ai/ha, scale 0 (no effect) to 100 (complete control), visual, 12 to 14 days, preemergence
[3] = 250 g ai/ha, scale 0-100, preemergence
[4] = 250 g ai/ha, scale 0 to 100 (0 no effect, 100 complete control), visual, 12 to 14 days, preemergence
[5] = 500 g ai/ha, scale 0 to 100 (0 no effect, 100 complete control), visual, 12 to 14 days, preemergence

CCc1nc(C(C)(C)C)sc1C(=O)Nc1cccc(C(=O)N(CC)CC)c1 [Compound 205]
40: Corn plant response rating (corn; 500 g ai/ha)
60: Soybean plant response rating (soybean; 500 g ai/ha) | Plant response rating, Johnsongrass (johnsongrass; [3])
0: Plant response rating, Ragweed (common ragweed; [1]) | Plant response rating, Surinam Grass (Surinam grass; [1]) | Plant response rating, Corn (corn; [1]) | Plant response rating, Corn (corn; [2]) | Plant response rating, Corn (corn; [3]) | Plant response rating, Nutsedge, Yellow (yellow nutsedge; [1]) | Plant response rating, Nutsedge, Yellow (yellow nutsedge; [2]) | Plant response rating, Nutsedge, Yellow (yellow nutsedge; [3]) | Plant response rating, Johnsongrass (johnsongrass; [1]) | Plant response rating, Foxtail, Giant (giant foxtail; [1]) | Plant response rating, Morningglory (morningglory; [1]) | Plant response rating, Morningglory (morningglory; [2])
80: Plant response rating, Nightshade (eastern black nightshade; [1]) | Plant response rating, Foxtail, Giant (giant foxtail; [3])
95: Foxtail, Giant plant response rating (giant foxtail; 500 g ai/ha)
20: Plant response rating, Ragweed (common ragweed; [2]) | Plant response rating, Surinam Grass (Surinam grass; [2]) | Plant response rating, Soybean (soybean; [2]) | Plant response rating, Soybean (soybean; [3])
10: Nutsedge, Yellow plant response rating (yellow nutsedge; 500 g ai/ha) | Plant response rating, Johnsongrass (johnsongrass; [2]) | Plant response rating, Foxtail, Giant (giant foxtail; [2]) | Plant response rating, Morningglory (morningglory; [3])
100: Ragweed plant response rating (common ragweed; 500 g ai/ha) | Plant response rating, Nightshade (eastern black nightshade; [2]) | Plant response rating, Nightshade (eastern black nightshade; [3]) | Nightshade plant response rating (eastern black nightshade; 500 g ai/ha) | Lambsquarters plant response rating (lambsquarters; 500 g ai/ha)
50: Plant response rating, Ragweed (common ragweed; [3]) | Plant response rating, Surinam Grass (Surinam grass; [3]) | Morningglory plant response rating (morningglory; 500 g ai/ha)
90: Plant response rating, Lambsquarters (lambsquarters; [2]) | Plant response rating, Lambsquarters (lambsquarters; [3])
85: Surinam Grass plant response rating (Surinam grass; 500 g ai/ha) | Johnsongrass plant response rating (johnsongrass; 500 g ai/ha) | Plant response rating, Lambsquarters (lambsquarters; [1])

CCN(CC)C(=O)c1cccc(NC(=O)c2sc(C(C)(C)C)nc2C)c1 [Compound 199]
80: Plant response rating, Ragweed (common ragweed; [3]) | Ragweed plant response rating (common ragweed; 500 g ai/ha) | Plant response rating, Foxtail, Giant (giant foxtail; [3]) | Plant response rating, Lambsquarters (lambsquarters; [1])
5: Plant response rating, Soybean (soybean; [3])
75: Surinam Grass plant response rating (Surinam grass; 500 g ai/ha)
50: Plant response rating, Morningglory (morningglory; [2])
55: Plant response rating, Ragweed (common ragweed; [1])
90: Johnsongrass plant response rating (johnsongrass; 500 g ai/ha)
0: Plant response rating, Surinam Grass (Surinam grass; [1]) | Plant response rating, Surinam Grass (Surinam grass; [2]) | Plant response rating, Corn (corn; [1]) | Plant response rating, Corn (corn; [2]) | Plant response rating, Corn (corn; [3]) | Corn plant response rating (corn; 500 g ai/ha) | Plant response rating, Nutsedge, Yellow (yellow nutsedge; [1]) | Plant response rating, Nutsedge, Yellow (yellow nutsedge; [2]) | Plant response rating, Nutsedge, Yellow (yellow nutsedge; [3]) | Nutsedge, Yellow plant response rating (yellow nutsedge; 500 g ai/ha) | Plant response rating, Soybean (soybean; [1]) | Plant response rating, Soybean (soybean; [2]) | Plant response rating, Johnsongrass (johnsongrass; [1]) | Plant response rating, Foxtail, Giant (giant foxtail; [1])
10: Plant response rating, Foxtail, Giant (giant foxtail; [2])
95: Plant response rating, Nightshade (eastern black nightshade; [2]) | Plant response rating, Lambsquarters (lambsquarters; [2])
30: Plant response rating, Surinam Grass (Surinam grass; [3]) | Soybean plant response rating (soybean; 500 g ai/ha) | Plant response rating, Johnsongrass (johnsongrass; [2])
60: Plant response rating, Ragweed (common ragweed; [2]) | Plant response rating, Johnsongrass (johnsongrass; [3])
100: Plant response rating, Nightshade (eastern black nightshade; [3]) | Nightshade plant response rating (eastern black nightshade; 500 g ai/ha) | Foxtail, Giant plant response rating (giant foxtail; 500 g ai/ha) | Plant response rating, Lambsquarters (lambsquarters; [3]) | Lambsquarters plant response rating (lambsquarters; 500 g ai/ha)
70: Plant response rating, Morningglory (morningglory; [3]) | Morningglory plant response rating (morningglory; 500 g ai/ha)
85: Plant response rating, Nightshade (eastern black nightshade; [1])

CCN(CC)C(=O)c1ccnc(NC(=O)c2cc(C(C)(C)C)nn2CC)c1 [Compound 153]
45: Nutsedge, Yellow plant response rating (yellow nutsedge; 500 g ai/ha)
0: Plant response rating, Ragweed (common ragweed; [1]) | Plant response rating, Ragweed (common ragweed; [2]) | Plant response rating, Surinam Grass (Surinam grass; [1]) | Plant response rating, Surinam Grass (Surinam grass; [2]) | Plant response rating, Corn (corn; [1]) | Plant response rating, Corn (corn; [2]) | Plant response rating, Corn (corn; [4]) | Corn plant response rating (corn; 500 g ai/ha) | Plant response rating, Nutsedge, Yellow (yellow nutsedge; [1]) | Plant response rating, Nutsedge, Yellow (yellow nutsedge; [2]) | Plant response rating, Soybean (soybean; [1]) | Plant response rating, Soybean (soybean; [2]) | Plant response rating, Johnsongrass (johnsongrass; [1]) | Plant response rating, Foxtail, Giant (giant foxtail; [1]) | Plant response rating, Foxtail, Giant (giant foxtail; [2]) | Plant response rating, Foxtail, Giant (giant foxtail; [4]) | Foxtail, Giant plant response rating (giant foxtail; 500 g ai/ha) | Plant response rating, Morningglory (morningglory; [1]) | Plant response rating, Morningglory (morningglory; [2])
85: Johnsongrass plant response rating (johnsongrass; 500 g ai/ha)
15: Soybean plant response rating (soybean; 500 g ai/ha) | Plant response rating, Johnsongrass (johnsongrass; [2]) | Morningglory plant response rating (morningglory; 500 g ai/ha)
90: Plant response rating, Nightshade (eastern black nightshade; [1])
95: Plant response rating, Lambsquarters (lambsquarters; [1])
100: Ragweed plant response rating (common ragweed; 500 g ai/ha) | Surinam Grass plant response rating (Surinam grass; 500 g ai/ha) | Plant response rating, Nightshade (eastern black nightshade; [2]) | Nightshade plant response rating (eastern black nightshade; 500 g ai/ha) | Plant response rating, Lambsquarters (lambsquarters; [2]) | Lambsquarters plant response rating (lambsquarters; 500 g ai/ha)

Cc1nn(C(C)(C)C)nc1C(=O)Nc1cccc(C(=S)N(C)C)c1 [Compound 419]
75: Plant response rating, Foxtail, Giant (giant foxtail; [1])
15: Plant response rating (0 = no effect, 100 = complete control), Ragweed (common ragweed; 125 g ai/ha, preemergence) | Plant response rating, Morningglory (morningglory; [1])
45: Plant response rating (0 = no effect, 100 = complete control), Surinam Grass (Surinam grass; 125 g ai/ha, preemergence)
40: Plant response rating, Corn (corn; [5]) | Plant response rating, Soybean (soybean; [1])
25: Plant response rating (0 = no effect, 100 = complete control), Morningglory (morningglory; 125 g ai/ha, preemergence)
100: Plant response rating, Ragweed (common ragweed; [5]) | Plant response rating, Surinam Grass (Surinam grass; [5]) | Plant response rating, Nightshade (eastern black nightshade; [5]) | Plant response rating, Johnsongrass (johnsongrass; [1]) | Plant response rating (0 = no effect, 100 = complete control), Johnsongrass (johnsongrass; 125 g ai/ha, preemergence) | Plant response rating, Johnsongrass (johnsongrass; [3]) | Plant response rating, Johnsongrass (johnsongrass; [5]) | Plant response rating, Foxtail, Giant (giant foxtail; [5]) | Plant response rating, Lambsquarters (lambsquarters; [3]) | Plant response rating, Lambsquarters (lambsquarters; [5]) | Plant response rating, Morningglory (morningglory; [5])
85: Plant response rating, Nightshade (eastern black nightshade; [1]) | Plant response rating (0 = no effect, 100 = complete control), Soybean (soybean; 125 g ai/ha, preemergence) | Plant response rating (0 = no effect, 100 = complete control), Foxtail, Giant (giant foxtail; 125 g ai/ha, preemergence)
95: Plant response rating (0 = no effect, 100 = complete control), Nightshade (eastern black nightshade; 125 g ai/ha, preemergence) | Plant response rating, Soybean (soybean; [5]) | Plant response rating, Foxtail, Giant (giant foxtail; [3]) | Plant response rating, Lambsquarters (lambsquarters; [1]) | Plant response rating (0 = no effect, 100 = complete control), Lambsquarters (lambsquarters; 125 g ai/ha, preemergence)
0: Plant response rating, Surinam Grass (Surinam grass; [1]) | Plant response rating, Corn (corn; [1]) | Plant response rating (0 = no effect, 100 = complete control), Corn (corn; 125 g ai/ha, preemergence) | Plant response rating, Corn (corn; [3]) | Plant response rating, Nutsedge, Yellow (yellow nutsedge; [1]) | Plant response rating (0 = no effect, 100 = complete control), Nutsedge, Yellow (yellow nutsedge; 125 g ai/ha, preemergence) | Plant response rating, Nutsedge, Yellow (yellow nutsedge; [5])
10: Plant response rating, Ragweed (common ragweed; [1])
